Results: PubChem BioAssay (NCI)
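1) Cells in 96-well plates. 2) Compound, 48 h, 5 concentrations. 3) Linear interpolation between surrounding doses. 4) Unreached endpoint = highest concentration. The concentration for full growth arrest is given as TGI.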

Key:
Test in all cases: NCI tumour cell line growth inhibition, 48 h
EKVX NSCLC = tested on: EKVX NSCLC
SNB-19 CNS = tested on: SNB-19 CNS
SW-620 colon = tested on: SW-620 colon
UO-31 renal = tested on: UO-31 renal
HCT-15 colon = tested on: HCT-15 colon
NCI-H23 lung = tested on: NCI-H23 lung
DMS 114 small cell lung = tested on: DMS 114 small cell lung
SNB-78 CNS = tested on: SNB-78 CNS
RPMI-8226 leukemia = tested on: RPMI-8226 leukemia
SN12C renal = tested on: SN12C renal
XF 498 CNS = tested on: XF 498 CNS
HCT-116 colon = tested on: HCT-116 colon
NCI-H460 lung = tested on: NCI-H460 lung
M19-MEL melanoma = tested on: M19-MEL melanoma
IGROV1 ovarian = tested on: IGROV1 ovarian
HOP-92 NSCLC = tested on: HOP-92 NSCLC
ACHN renal = tested on: ACHN renal
HT29 colon = tested on: HT29 colon
SR leukemia = tested on: SR leukemia
CCRF-CEM leukemia = tested on: CCRF-CEM leukemia
MALME-3M melanoma = tested on: MALME-3M melanoma
UACC-257 melanoma = tested on: UACC-257 melanoma
HOP-62 NSCLC = tested on: HOP-62 NSCLC
RXF 393 renal = tested on: RXF 393 renal
OVCAR-8 ovarian = tested on: OVCAR-8 ovarian
LOX IMVI melanoma = tested on: LOX IMVI melanoma
SF-268 CNS = tested on: SF-268 CNS
SNB-75 CNS = tested on: SNB-75 CNS
A549 NSCLC = tested on: A549 NSCLC
SF-539 CNS = tested on: SF-539 CNS
SK-MEL-28 melanoma = tested on: SK-MEL-28 melanoma
NCI-H226 lung = tested on: NCI-H226 lung
SK-MEL-5 melanoma = tested on: SK-MEL-5 melanoma
KM12 colon = tested on: KM12 colon
786-0 renal = tested on: 786-0 renal
DLD-1 colon = tested on: DLD-1 colon
MOLT-4 leukemia = tested on: MOLT-4 leukemia
A498 renal = tested on: A498 renal
UACC-62 melanoma = tested on: UACC-62 melanoma
OVCAR-3 ovarian = tested on: OVCAR-3 ovarian
HOP-18 NSCLC = tested on: HOP-18 NSCLC
OVCAR-5 ovarian = tested on: OVCAR-5 ovarian
HL-60(TB) leukemia = tested on: HL-60(TB) leukemia
OVCAR-4 ovarian = tested on: OVCAR-4 ovarian
HCC-2998 colon = tested on: HCC-2998 colon
RXF-631 renal = tested on: RXF-631 renal
SK-MEL-2 melanoma = tested on: SK-MEL-2 melanoma
TK-10 renal = tested on: TK-10 renal
CAKI-1 renal = tested on: CAKI-1 renal
SF-295 CNS = tested on: SF-295 CNS
KM20L2 colon = tested on: KM20L2 colon
K-562 leukemia = tested on: K-562 leukemia
M14 melanoma = tested on: M14 melanoma
LXFL 529 NSCLC = tested on: LXFL 529 NSCLC
DMS 273 small cell lung = tested on: DMS 273 small cell lung
NCI-H522 lung = tested on: NCI-H522 lung
U251 CNS = tested on: U251 CNS
SK-OV-3 ovarian = tested on: SK-OV-3 ovarian
COLO 205 colon = tested on: COLO 205 colon

Structure (SMILES): CC/C(C)=C1\CCC(CN(C)C)C1=O (stereo not given)
- TGI (EKVX NSCLC): 44 µM
- TGI (SNB-19 CNS): > 100 µM
- TGI (SW-620 colon): 53.4 µM
- TGI (UO-31 renal): 35.4 µM
- TGI (HCT-15 colon): 29.2 µM
- TGI (NCI-H23 lung): 42.9 µM
- TGI (DMS 114 small cell lung): 41.8 µM
- TGI (SNB-78 CNS): 54.8 µM
- TGI (RPMI-8226 leukemia): 17.1 µM
- TGI (SN12C renal): 38.3 µM
- TGI (XF 498 CNS): 34.7 µM
- TGI (HCT-116 colon): 31.7 µM
- TGI (NCI-H460 lung): 33.4 µM
- TGI (M19-MEL melanoma): 32.6 µM
- TGI (IGROV1 ovarian): 36.8 µM
- TGI (HOP-92 NSCLC): 46.2 µM
- TGI (ACHN renal): 33.2 µM
- TGI (HT29 colon): 46.5 µM
- TGI (SR leukemia): 43.2 µM
- TGI (CCRF-CEM leukemia): 39.8 µM
- TGI (MALME-3M melanoma): 39.1 µM
- TGI (UACC-257 melanoma): 31.4 µM
- TGI (HOP-62 NSCLC): > 100 µM
- TGI (RXF 393 renal): 40.4 µM
- TGI (OVCAR-8 ovarian): 76.1 µM
- TGI (LOX IMVI melanoma): 40.7 µM
- TGI (SF-268 CNS): 43.2 µM
- TGI (SNB-75 CNS): 30.1 µM
- TGI (A549 NSCLC): 49.2 µM
- TGI (SF-539 CNS): 32.7 µM
- TGI (SK-MEL-28 melanoma): 38.6 µM
- TGI (NCI-H226 lung): > 100 µM
- TGI (SK-MEL-5 melanoma): 91.5 µM
- TGI (KM12 colon): 28.4 µM
- TGI (786-0 renal): 29.3 µM
- TGI (DLD-1 colon): 30.5 µM
- TGI (MOLT-4 leukemia): 70.9 µM
- TGI (A498 renal): 37.5 µM
- TGI (UACC-62 melanoma): > 100 µM
- TGI (OVCAR-3 ovarian): 33.2 µM
- TGI (HOP-18 NSCLC): 32.2 µM
- TGI (OVCAR-5 ovarian): 33.6 µM
- TGI (HL-60(TB) leukemia): 43.7 µM
- TGI (OVCAR-4 ovarian): 32 µM
- TGI (HCC-2998 colon): 39.9 µM
- TGI (RXF-631 renal): 34.4 µM
- TGI (SK-MEL-2 melanoma): 32.5 µM
- TGI (TK-10 renal): 31.1 µM
- TGI (CAKI-1 renal): 4.36 µM
- TGI (SF-295 CNS): > 100 µM
- TGI (KM20L2 colon): 47.5 µM
- TGI (K-562 leukemia): 79.5 µM
- TGI (M14 melanoma): 33.6 µM
- TGI (LXFL 529 NSCLC): 29.9 µM
- TGI (DMS 273 small cell lung): 33.3 µM

Structure (SMILES): CCOC(=O)CC(C)C1(C=O)CCCCC1=O (stereo not given)
- TGI (EKVX NSCLC): > 100 µM
- TGI (SNB-19 CNS): > 100 µM
- TGI (UO-31 renal): > 100 µM
- TGI (HCT-15 colon): > 100 µM
- TGI (DMS 114 small cell lung): 41.6 µM
- TGI (SNB-78 CNS): > 100 µM
- TGI (RPMI-8226 leukemia): 53.2 µM
- TGI (SN12C renal): > 100 µM
- TGI (XF 498 CNS): > 100 µM
- TGI (HCT-116 colon): > 100 µM
- TGI (NCI-H460 lung): > 100 µM
- TGI (M19-MEL melanoma): > 100 µM
- TGI (IGROV1 ovarian): > 100 µM
- TGI (ACHN renal): > 100 µM
- TGI (NCI-H522 lung): > 100 µM
- TGI (SR leukemia): 49.8 µM
- TGI (CCRF-CEM leukemia): > 100 µM
- TGI (MALME-3M melanoma): > 100 µM
- TGI (UACC-257 melanoma): > 100 µM
- TGI (U251 CNS): > 100 µM
- TGI (HOP-62 NSCLC): > 100 µM
- TGI (RXF 393 renal): > 100 µM
- TGI (OVCAR-8 ovarian): > 100 µM
- TGI (LOX IMVI melanoma): 34 µM
- TGI (SF-268 CNS): > 100 µM
- TGI (SNB-75 CNS): > 100 µM
- TGI (A549 NSCLC): > 100 µM
- TGI (SF-539 CNS): > 100 µM
- TGI (SK-MEL-28 melanoma): > 100 µM
- TGI (NCI-H226 lung): > 100 µM
- TGI (SK-MEL-5 melanoma): > 100 µM
- TGI (KM12 colon): > 100 µM
- TGI (786-0 renal): > 100 µM
- TGI (DLD-1 colon): > 100 µM
- TGI (MOLT-4 leukemia): > 100 µM
- TGI (A498 renal): > 100 µM
- TGI (UACC-62 melanoma): > 100 µM
- TGI (OVCAR-3 ovarian): > 100 µM
- TGI (HOP-18 NSCLC): > 100 µM
- TGI (SK-OV-3 ovarian): > 100 µM
- TGI (OVCAR-5 ovarian): > 100 µM
- TGI (HL-60(TB) leukemia): > 100 µM
- TGI (OVCAR-4 ovarian): > 100 µM
- TGI (HCC-2998 colon): > 100 µM
- TGI (RXF-631 renal): > 100 µM
- TGI (SK-MEL-2 melanoma): > 100 µM
- TGI (TK-10 renal): > 100 µM
- TGI (CAKI-1 renal): > 100 µM
- TGI (SF-295 CNS): > 100 µM
- TGI (KM20L2 colon): > 100 µM
- TGI (K-562 leukemia): > 100 µM
- TGI (M14 melanoma): > 100 µM
- TGI (COLO 205 colon): > 100 µM
- TGI (LXFL 529 NSCLC): > 100 µM
- TGI (DMS 273 small cell lung): > 100 µM
